Laboratory results as given in ChEMBL document CHEMBL4482325, “Clpx inhibitory compounds for the treatment of multi resistant staphylococcus aureus virulence and for the treatment of leukemia” (2018).
Calls of active or inactive are those of the source. The calls are words filed in the database; no cut-off is given here.

What was measured:
Staphylococcus aureus [1] = test: (§1) Inhibition of Staphylococcus aureus ClpXP using ssrA degradation tagged fluorescent GFP substrate in presence of ATP regeneration system pre-incubation for 15 mins before substrate addition by fluorescence assay
Staphylococcus aureus [2] = test: Inhibition of Staphylococcus aureus ClpCP at 100 uM using ssrA degradation tagged fluorescent GFP substrate in presence of ATP regeneration system pre-incubation for 15 mins before substrate addition by fluorescence assay
[3] = as §1
[4] = biological target: T1, ATP-dependent Clp protease proteolytic subunit (Staphylococcus aureus (strain NCTC 8325)) (UniProt Q2G036); test: Inhibition of Staphylococcus aureus ClpP using ssrA degradation tagged fluorescent GFP substrate in presence of ATP regeneration system pre-incubation for 15 mins before substrate addition by fluorescence assay
T1 sequence (whole entry): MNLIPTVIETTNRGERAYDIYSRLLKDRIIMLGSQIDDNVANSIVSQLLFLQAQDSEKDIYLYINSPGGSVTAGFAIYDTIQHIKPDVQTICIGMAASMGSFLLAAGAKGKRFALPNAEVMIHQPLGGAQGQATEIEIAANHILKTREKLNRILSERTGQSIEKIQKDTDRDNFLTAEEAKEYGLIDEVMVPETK

Staphylococcus aureus [5] = test: Binding affinity to Staphylococcus aureus ClpPX assessed as induction of covalent modification a 100 um incubated for 60 mins by intact mass spectrometry
[6] = Half life in mouse plasma at 100 uM by HPLC and MS analysis; assay type: ADME, cell-free
Staphylococcus aureus [7] = test: Suppression of virulence factors in Staphylococcus aureus NCTC 8325 assessed as reduction in serine protease B expression; assay type: functional, organism-based
Staphylococcus aureus [8] = test: Binding affinity to Staphylococcus aureus ClpXP assessed as induction of collapse of ClpXP proteolytic complex
Staphylococcus aureus [9] = test: Suppression of virulence factors in Staphylococcus aureus NCTC 8325 assessed as reduction in serine protease E expression; assay type: functional, organism-based
Staphylococcus aureus [10] = test: Inhibition of ClpXP in Staphylococcus aureus NCTC 8325 assessed as reduction in extracellular proteolytic activity by measuring overall proteolysis of sheep erythrocytes exposed to supernatants of 20 hrs 0.1 to 30 nmol compound pre-treated Staphylococcus aureus
Staphylococcus aureus [11] = test: Inhibition of Staphylococcus aureus ClpXP using ssrA degradation tagged fluorescent GFP substrate in presence of ATP regeneration system pre-incubation for 15 mins before substrate addition by fluorescence assay relative to control
Homo sapiens [12] = species on record: Homo sapiens; test: Cytotoxicity against human S-Jurkat cells assessed as reduction in cell viability up to 120 uM incubated for 72 hrs by cell-titer blue reagent based assay; assay type: functional
[13] = Inhibition of Staphylococcus aureus ClpPX assessed as reduction in ATP hydrolysis incubated for 2 to 14 mins by malachite green assay
K562 = test: Cytotoxicity against human K562 cells assessed as reduction in cell viability up to 100 uM incubated for 72 hrs by cell-titer blue reagent based assay; assay type: functional
Staphylococcus aureus [14] = test: Suppression of virulence factors in Staphylococcus aureus NCTC 8325 assessed as reduction in serine protease F expression; assay type: functional, organism-based
Staphylococcus aureus [15] = test: Suppression of virulence factors in Staphylococcus aureus NCTC 8325 assessed as reduction in serine protease C expression; assay type: functional, organism-based
Staphylococcus aureus [16] = test: Suppression of virulence factors in Staphylococcus aureus NCTC 8325 assessed as reduction in serine protease A expression; assay type: functional, organism-based
Staphylococcus aureus [17] = test: Suppression of virulence factors in Staphylococcus aureus NCTC 8325 assessed as reduction in staphopain-A expression; assay type: functional, organism-based
Staphylococcus aureus [18] = test: Suppression of virulence factors in Staphylococcus aureus NCTC 8325 assessed as reduction in serine protease D expression; assay type: functional, organism-based
Homo sapiens [19] = species on record: Homo sapiens; test: Inhibition of human ClpXP at 1 to 100 uM preincubated for 15 mins before FITC-labeled casein substrate addition in presence of ATP regeneration mix and creatine kinase
Staphylococcus aureus [20] = test: Suppression of virulence factors in Staphylococcus aureus NCTC 8325 assessed as reduction in gamma hemolysin-C protein expression; assay type: functional, organism-based
[21] = (§2) Inhibition of ClpXP in Staphylococcus aureus NCTC 8325 assessed as reduction in extracellular proteolytic activity by measuring hemolysis of sheep erythrocytes exposed to supernatants of 20 hrs compound pre-treated Staphylococcus aureus
Staphylococcus aureus [22] = test: as §2
CCRF-CEM = test: Cytotoxicity against human CCRF-CEM cells assessed as reduction in cell viability up to 120 uM incubated for 72 hrs by cell-titer blue reagent based assay; assay type: functional
A549 = test: Cytotoxicity against human A549 cells assessed as reduction in residual metabolic activity at 1 to 50 uM incubated for 24 hrs by MTT assay; assay type: functional, cell-based

O=C1C2=C(Nc3ccccc3S(=O)(=O)C2c2ccc(C(F)(F)F)cc2)c2ccccc21 (stereo not drawn)
inhibition (active/not active) (Staphylococcus aureus [1]): Active

Cc1ccc(NC(=O)Cc2ccc(NC(=O)N3CCCCc4ccccc43)cc2)cc1C
inhibition (Staphylococcus aureus [2]): inactive
IC50 [3]: 1600 nM
inhibition [4]: inactive

O=C1C2=C(Nc3ccccc3SC2c2cc(O)cc(Br)c2)c2ccccc21 (stereo not drawn)
inhibition (active/not active) (Staphylococcus aureus [1]): Active

O=C1C2=C(Nc3ccccc3SC2c2cccc(O)c2)c2ccccc21 (stereo not drawn)
Activity (Staphylococcus aureus [5]): inactive
half-life at 100 µM [6]: > 4 h
Activity (Staphylococcus aureus [7]): Dose-dependent effect
EC50 (Staphylococcus aureus [7]): 3000 nM
Activity (Staphylococcus aureus [8]): Active
Activity (Staphylococcus aureus [9]): Dose-dependent effect
EC50 (Staphylococcus aureus [9]): 3000 nM
inhibition (Staphylococcus aureus [10]): Active
inhibition (Staphylococcus aureus [11]): 100%
Activity (Homo sapiens [12]): Active
IC50 [13]: 1600 to 2400 nM
Activity (K562): Active
inhibition (Staphylococcus aureus [2]): inactive
Activity (Staphylococcus aureus [14]): Dose-dependent effect
EC50 (Staphylococcus aureus [14]): 3000 nM
Activity (Staphylococcus aureus [15]): Dose-dependent effect
EC50 (Staphylococcus aureus [15]): 3000 nM
IC50 [3]: 1500 nM
Activity (Staphylococcus aureus [16]): Dose-dependent effect
EC50 (Staphylococcus aureus [16]): 3000 nM
Activity (Staphylococcus aureus [17]): Dose-dependent effect
EC50 (Staphylococcus aureus [17]): 3000 nM
inhibition [4]: inactive
Activity (Staphylococcus aureus [18]): Dose-dependent effect
EC50 (Staphylococcus aureus [18]): 3000 nM
inhibition (Homo sapiens [19]): Active
Activity (Staphylococcus aureus [20]): Dose-dependent effect
EC50 (Staphylococcus aureus [20]): 3000 nM
IC50 [21]: 3000 nM
inhibition (Staphylococcus aureus [22]): Dose-dependent effect
Activity (CCRF-CEM): Active

O=C1C2=C(Nc3ccccc3SC2c2ccccc2)c2ccccc21 (stereo not drawn)
inhibition (active/not active) (Staphylococcus aureus [1]): Active

O=C1C2=C(Nc3ccccc3SC2c2cccnc2)c2ccccc21 (stereo not drawn)
inhibition (active/not active) (Staphylococcus aureus [1]): inactive

O=C1C2=C(Nc3ccccc3SC2c2cccc(O)c2)c2cc(Cl)c(Cl)cc21 (stereo not drawn)
inhibition (active/not active) (Staphylococcus aureus [1]): Active

C#Cc1ccc2c(c1)C1=C(C2=O)C(c2cc(O)cc(N=[N+]=[N-])c2)Sc2ccccc2N1 (stereo not drawn)
inhibition (active/not active) (Staphylococcus aureus [1]): Active

O=C1C2=C(Nc3ccccc3SC2c2ccc(O)cc2)c2ccccc21 (stereo not drawn)
inhibition (active/not active) (Staphylococcus aureus [1]): Active

COc1cc(O)cc(C2Sc3ccccc3NC3=C2C(=O)c2ccccc23)c1 (stereo not drawn)
inhibition (active/not active) (Staphylococcus aureus [1]): Active

O=C1C2=C(Nc3ccccc3S(=O)(=O)C2c2cccc(O)c2)c2ccccc21 (stereo not drawn)
Activity (A549): inactive
inhibition (active/not active) (Staphylococcus aureus [1]): Active

COc1ccc2c(c1)SC(c1cccc(O)c1)C1=C(N2)c2ccccc2C1=O (stereo not drawn)
inhibition (active/not active) (Staphylococcus aureus [1]): Active

C#CCNC(=O)c1ccc2c(c1)C1=C(C2=O)C(c2cccc(OC)c2)Sc2ccccc2N1 (stereo not drawn)
inhibition (active/not active) (Staphylococcus aureus [1]): Active

O=C1C2=C(Nc3ccccc3SC2c2ccccc2O)c2ccccc21 (stereo not drawn)
inhibition (active/not active) (Staphylococcus aureus [1]): inactive

O=C1C2=C(Nc3ccccc3S(=O)(=O)C2c2ccc(F)cc2)c2ccccc21 (stereo not drawn)
inhibition (active/not active) (Staphylococcus aureus [1]): Active

C#CCCCCOc1cc(O)cc(C2Sc3ccccc3NC3=C2C(=O)c2ccccc23)c1 (stereo not drawn)
inhibition (active/not active) (Staphylococcus aureus [1]): Active

Nc1cccc(C2Sc3ccccc3NC3=C2C(=O)c2ccccc23)c1 (stereo not drawn)
inhibition (active/not active) (Staphylococcus aureus [1]): Active

COc1cccc(C2C3=C(Nc4ccccc4S2(=O)=O)c2ccccc2C3=O)c1 (stereo not drawn)
inhibition (active/not active) (Staphylococcus aureus [1]): Active

C#Cc1ccc2c(c1)C1=C(C2=O)C(c2cccc(O)c2)Sc2ccccc2N1 (stereo not drawn)
inhibition (active/not active) (Staphylococcus aureus [1]): Active

C#CCNC(=O)c1ccc2c(c1)C1=C(C2=O)C(c2cccc(O)c2)Sc2ccccc2N1 (stereo not drawn)
inhibition (active/not active) (Staphylococcus aureus [1]): Active

C#CCNC(=O)c1ccc2c(c1)C(=O)C1=C2Nc2ccccc2SC1c1cccc(OC)c1 (stereo not drawn)
inhibition (active/not active) (Staphylococcus aureus [1]): Active

O=C1C2=C(Nc3ccccc3NC2c2ccccc2)c2ccccc21 (stereo not drawn)
inhibition (active/not active) (Staphylococcus aureus [1]): Active

O=C1C2=C(Nc3ccccc3SC2c2ccc(F)cc2)c2ccccc21 (stereo not drawn)
inhibition (active/not active) (Staphylococcus aureus [1]): Active

COC(=O)c1ccc(OC(=O)CCc2cc(OC)c(OC)c(OC)c2)cc1
inhibition (Staphylococcus aureus [2]): inactive

O=C1C2=C(Nc3ccccc3SC2c2cccs2)c2ccccc21 (stereo not drawn)
Activity (Homo sapiens [12]): Active
IC50 [13]: 1600 to 2400 nM
Activity (K562): Active
inhibition (Staphylococcus aureus [2]): inactive
IC50 [3]: 2500 nM
inhibition [4]: inactive
inhibition (Homo sapiens [19]): Active
Activity (CCRF-CEM): Active

O=C1C2=C(Nc3ccccc3SC2c2cccc(CO)c2)c2ccccc21 (stereo not drawn)
Activity (A549): inactive
inhibition (active/not active) (Staphylococcus aureus [1]): Active

COc1ccc(-n2ccnc(SCC(=O)Nc3cc(OC)cc(OC)c3)c2=O)cc1
inhibition (Staphylococcus aureus [2]): inactive
IC50 [3]: 2200 nM
inhibition [4]: inactive

C#CCNC(=O)c1ccc2c(c1)C(=O)C1=C2Nc2ccccc2SC1c1cccc(O)c1 (stereo not drawn)
inhibition (active/not active) (Staphylococcus aureus [1]): Active

O=C1C2=C(Nc3ccccc3SC2c2ccc(-c3ccccc3)cc2)c2ccccc21 (stereo not drawn)
inhibition (active/not active) (Staphylococcus aureus [1]): Active

N#CC1=C(N)Oc2cc3c(cc2C1c1ccc(OCc2ccc(F)cc2)cc1)OCO3 (stereo not drawn)
inhibition (Staphylococcus aureus [2]): inactive
IC50 [3]: 600 nM
inhibition [4]: inactive

O=C1C2=C(Nc3ccccc3SC2c2cc(O)cc(O)c2)c2ccccc21 (stereo not drawn)
inhibition (active/not active) (Staphylococcus aureus [1]): Active

O=C1C2=C(Nc3ccccc3S(=O)(=O)C2c2ccc(-c3ccccc3)cc2)c2ccccc21 (stereo not drawn)
inhibition (active/not active) (Staphylococcus aureus [1]): Active

O=C(O)c1ccc(C2Sc3ccccc3NC3=C2C(=O)c2ccccc23)cc1 (stereo not drawn)
inhibition (active/not active) (Staphylococcus aureus [1]): inactive

CC(=O)Oc1ccc(C2Sc3ccccc3NC3=C2C(=O)c2ccccc23)cc1 (stereo not drawn)
inhibition (Staphylococcus aureus [11]): 35%
inhibition (active/not active) (Staphylococcus aureus [1]): Active

C#Cc1ccc2c(c1)C(=O)C1=C2Nc2ccccc2SC1c1cccc(O)c1 (stereo not drawn)
inhibition (active/not active) (Staphylococcus aureus [1]): Active

O=C1C2=C(Nc3ccccc3SC2c2cccc(F)c2)c2ccccc21 (stereo not drawn)
inhibition (active/not active) (Staphylococcus aureus [1]): Active

C#Cc1ccc2c(c1)C(=O)C1=C2Nc2ccccc2SC1c1cc(O)cc(N=[N+]=[N-])c1 (stereo not drawn)
inhibition (active/not active) (Staphylococcus aureus [1]): Active

N#CC1=C(N)Oc2[nH]nc(-c3ccc(Br)cc3)c2C1c1ccc(OC(=O)c2ccco2)cc1 (stereo not drawn)
inhibition (Staphylococcus aureus [2]): inactive
IC50 [3]: 3100 nM
inhibition [4]: inactive

O=C1C2=C(Nc3ccccc3SC2c2ccc(C(F)(F)F)cc2)c2ccccc21 (stereo not drawn)
inhibition (active/not active) (Staphylococcus aureus [1]): Active

COc1cccc(C2Sc3ccccc3NC3=C2C(=O)c2ccccc23)c1 (stereo not drawn)
inhibition (active/not active) (Staphylococcus aureus [1]): Active
